Results taken from publication PMC4578769, “Development of a Fluorescence-based Trypanosoma cruzi CYP51 Inhibition Assay for Effective Compound Triaging in Drug Discovery Programmes for Chagas Disease” (PLoS Neglected Tropical Diseases, 2015).
Where two headings read alike, the source gives them in different places.

Columns and labels:
T. cruzi = conditions: cited from earlier work; for re-emergence of parasitaemia once dosing has been completed: clinical trial, patients
[1] = molecular target: T1, T. cruzi CYP51 (Tulahuen strain) (Trypanosoma cruzi, UniProt Q7Z1V1); test: biochemical; type: biochemical; conditions: for inhibition of T. cruzi CYP51 (in words): known CYP450 inhibitors
T1 construct: ompA leader (N); host or cells: E. coli JM109 (membrane fraction, bactosomes)
Protocol: E. coli membrane fractions containing the T. cruzi CYP51 (Tulahuen strain) (Bactosomes) were provided by Cypex Ltd.
For each concentration of test compound the rate of fluorescence units per minute was calculated as a percentage of the average rate of the solvent only control wells.
The percentage of solvent control values was then plotted against the concentration range. Using the following 4 parameter fit equation, an IC50 value can be determined.
y=Range/1+(x/IC50)^s+Background
With kinetic parameters established, a microtitre-based assay to measure inhibition of recombinantly expressed T. cruzi CYP51 by test compounds was then implemented. […] Incubations containing 37 pmoles/mL of T. cruzi CYP51 in bactosomes, 100 μM BOMCC, 10, 3.3, 1.0, 0.33, 0.1, 0.033 or 0.01 μM test compound (2% v/v solvent) in 50 mM potassium phosphate buffer (pH 7.4), were pre-incubated at 37°C for 5 minutes. Upon addition of NADPH regenerating system (7.8 mg [[…]] glucose-6-phosphate, 1.7 mg [[…]] NADP, 6 units/mL glucose-6-phosphate dehydrogenase in 2% w/v sodium bicarbonate buffer) production of fluorescent metabolite CHC was measured (Exc 410 nm, Em 460 nm) at 1 minute intervals over a 10 minute period. Rates of metabolite production per minute were compared to uninhibited controls and plotted against test compound concentration to obtain an IC50.

T1 sequence (Q7Z1V1 whole entry): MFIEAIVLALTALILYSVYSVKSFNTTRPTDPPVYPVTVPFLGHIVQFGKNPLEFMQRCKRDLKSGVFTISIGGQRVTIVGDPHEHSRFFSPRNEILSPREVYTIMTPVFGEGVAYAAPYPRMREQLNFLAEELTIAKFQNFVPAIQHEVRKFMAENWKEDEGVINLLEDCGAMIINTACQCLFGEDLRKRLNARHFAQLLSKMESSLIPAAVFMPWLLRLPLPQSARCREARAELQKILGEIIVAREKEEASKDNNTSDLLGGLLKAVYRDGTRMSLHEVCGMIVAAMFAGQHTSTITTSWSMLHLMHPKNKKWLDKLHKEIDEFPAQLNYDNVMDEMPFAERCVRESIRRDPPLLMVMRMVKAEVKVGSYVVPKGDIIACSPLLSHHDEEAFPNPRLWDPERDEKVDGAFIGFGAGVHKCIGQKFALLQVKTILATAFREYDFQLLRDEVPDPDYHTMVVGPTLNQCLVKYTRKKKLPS

Compound | IC50 [1] | inhibition of T. cruzi CYP51 (in words) [1] | other results
CC[C@@H]([C@H](C)O)n1ncn(-c2ccc(N3CCN(c4ccc(OC[C@@H]5CO[C@@](Cn6cncn6)(c6ccc(F)cc6F)C5)cc4)CC3)cc2)c1=O [Posaconazole] | – | – | re-emergence of parasitaemia once dosing has been completed (T. cruzi): re-emergence of parasitaemia in two thirds of patients
C=C[C@H]1C[N@@]2CC[C@H]1C[C@@H]2[C@@H](O)c1ccnc2ccc(OC)cc12 [Quinidine] | > 8 µM | did not appear to inhibit | –
C[C@@H](c1nc(-c2ccc(C#N)cc2)cs1)[C@](O)(Cn1cncn1)c1ccc(F)cc1F [ravuconazole] | – | – | re-emergence of parasitaemia once dosing has been completed (T. cruzi): re-emergence of parasitaemia in two thirds of patients
Cn1cc[nH]c1=S [Methimazole] | > 8 µM | – | –
CCC(C)n1ncn(-c2ccc(N3CCN(c4ccc(OCC5COC(Cn6cncn6)(c6ccc(Cl)cc6Cl)O5)cc4)CC3)cc2)c1=O (centres unmarked) [Itraconazole] | – | – | curative activity in humans with chronic Chagas disease (T. cruzi): not demonstrated significant curative activity
Clc1ccc(COC(Cn2ccnc2)c2ccc(Cl)cc2Cl)c(Cl)c1 (centres unmarked) [Miconazole] | 0.057 µM | – | –
Clc1ccccc1CN1CCc2sccc2C1 [Ticlopidine] | > 8 µM | did not appear to inhibit | –
CC(=O)N1CCN(c2ccc(OCC3COC(Cn4ccnc4)(c4ccc(Cl)cc4Cl)O3)cc2)CC1 (centres unmarked) [Ketoconazole] | – | – | curative activity in humans with chronic Chagas disease (T. cruzi): not demonstrated significant curative activity
Cc1nc2c([nH]1)c(=O)n(C)c(=O)n2Cc1ccco1 [Furafylline] | > 8 µM | did not appear to inhibit | –
Nc1ccc(S(=O)(=O)Nc2ccnn2-c2ccccc2)cc1 [Sulphaphenazole] | – | did not appear to inhibit | IC50 ([1]; read-out: IC50 (μM), n = 3, 37 pmoles/mL T. cruzi CYP51 in bactosomes, 100 μM BOMCC, pH 7.4, 37°C, enzyme concentration defines minimum IC50 of approximately 0.02 μM): > 8 µM
